Measured values taken from article PMC7187334 (Clinical Pharmacology in Drug Development, 2019).
pIC50: −log10 of the molar value.

Assays:
[1] = healthy volunteers, cited from earlier work
[2] = test system: leukotriene B4 production in human leukocytes; conditions: in vitro; cited from earlier work
[3] = test system: CYP2C8; conditions: in vitro; read-out: IC50, CYP2C8 inhibition; cited from earlier work
[4] = test system: CYP1A2; conditions: in vitro; read-out: IC50, CYP1A2 inhibition; cited from earlier work
[5] = test system: leukotriene E4 levels in urine; conditions: healthy volunteers, first-in-human study; 95% CI 0.7-1.0 nM; read-out: IC50, reduction of endogenous leukotriene E4 levels in urine; cited from earlier work
[6] = test system: CYP3A4; conditions: in vitro; read-out: IC50, CYP3A4 inhibition; cited from earlier work
[7] = target: P‐glycoprotein (Homo sapiens, UniProt P08183); test: P-glycoprotein inhibition in vitro; assay type: in vitro ADME
[8] = test system: CYP2D6; conditions: in vitro; read-out: IC50, CYP2D6 inhibition; cited from earlier work
[9] = test system: CYP2C19; conditions: in vitro; read-out: IC50, CYP2C19 inhibition; cited from earlier work
[10] = test system: leukotriene B4 production; conditions: healthy volunteers, first-in-human study; 95% CI 4.8-5.8 nM; read-out: IC50, inhibition of leukotriene B4 production, whole-blood ex vivo stimulation assay; cited from earlier work
[11] = target: organic anion‐transporting polypeptide 1B1 (OATP1B1) (Homo sapiens, UniProt Q9Y6L6); test: OATP1B1 transporter inhibition in vitro; conditions: read-out: IC50, OATP1B1 inhibition, unpublished data
[12] = target: T1, breast cancer resistance protein (BCRP) (Homo sapiens, UniProt Q9UNQ0); test: BCRP transporter inhibition in vitro; assay type: in vitro ADME; conditions: unpublished data
T1 sequence (Q9UNQ0 1-655): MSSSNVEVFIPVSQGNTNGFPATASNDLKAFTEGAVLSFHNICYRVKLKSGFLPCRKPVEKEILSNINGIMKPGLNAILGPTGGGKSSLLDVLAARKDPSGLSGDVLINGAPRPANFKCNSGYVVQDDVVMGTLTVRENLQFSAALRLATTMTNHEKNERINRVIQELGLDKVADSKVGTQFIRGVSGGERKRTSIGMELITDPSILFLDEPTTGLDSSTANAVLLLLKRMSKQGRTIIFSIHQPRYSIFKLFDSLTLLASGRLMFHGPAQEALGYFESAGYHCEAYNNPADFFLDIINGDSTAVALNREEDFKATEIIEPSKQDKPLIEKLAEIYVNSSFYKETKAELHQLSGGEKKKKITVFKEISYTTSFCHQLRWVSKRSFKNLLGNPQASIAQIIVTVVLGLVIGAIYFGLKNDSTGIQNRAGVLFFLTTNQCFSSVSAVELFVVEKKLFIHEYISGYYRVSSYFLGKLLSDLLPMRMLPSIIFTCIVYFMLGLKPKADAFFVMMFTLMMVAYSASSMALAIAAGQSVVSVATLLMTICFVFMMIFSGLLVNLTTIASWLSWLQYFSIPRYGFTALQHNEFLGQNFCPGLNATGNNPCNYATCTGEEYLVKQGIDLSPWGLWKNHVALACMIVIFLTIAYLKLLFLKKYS

[13] = test system: healthy volunteers; test: Phase 1 crossover study: safety and tolerability (adverse events); assay type: in vivo, human
Description: Each participant received 5 single‐dose oral study treatments (A‐E), with a minimum washout period of 7 days between each treatment period.
The safety set included all participants who received treatment in the study and for whom any postdose safety data were available. Safety was assessed throughout the study by monitoring adverse events, vital signs (systolic and diastolic blood pressure, pulse rate, and body temperature), and electrocardiographic parameters and by conducting physical examinations and laboratory assessments (hematology, blood chemistry, and urinalysis).

[14] = test system: CYP3A4 and CYP3A5; conditions: in vitro; UGT 1A1, 1A3, 1A4 glucuronidation also contributes; cited from earlier work
[15] = test system: CYP2C9; conditions: in vitro; read-out: IC50, CYP2C9 inhibition; cited from earlier work

Sequence of P‐glycoprotein (P08183 whole entry): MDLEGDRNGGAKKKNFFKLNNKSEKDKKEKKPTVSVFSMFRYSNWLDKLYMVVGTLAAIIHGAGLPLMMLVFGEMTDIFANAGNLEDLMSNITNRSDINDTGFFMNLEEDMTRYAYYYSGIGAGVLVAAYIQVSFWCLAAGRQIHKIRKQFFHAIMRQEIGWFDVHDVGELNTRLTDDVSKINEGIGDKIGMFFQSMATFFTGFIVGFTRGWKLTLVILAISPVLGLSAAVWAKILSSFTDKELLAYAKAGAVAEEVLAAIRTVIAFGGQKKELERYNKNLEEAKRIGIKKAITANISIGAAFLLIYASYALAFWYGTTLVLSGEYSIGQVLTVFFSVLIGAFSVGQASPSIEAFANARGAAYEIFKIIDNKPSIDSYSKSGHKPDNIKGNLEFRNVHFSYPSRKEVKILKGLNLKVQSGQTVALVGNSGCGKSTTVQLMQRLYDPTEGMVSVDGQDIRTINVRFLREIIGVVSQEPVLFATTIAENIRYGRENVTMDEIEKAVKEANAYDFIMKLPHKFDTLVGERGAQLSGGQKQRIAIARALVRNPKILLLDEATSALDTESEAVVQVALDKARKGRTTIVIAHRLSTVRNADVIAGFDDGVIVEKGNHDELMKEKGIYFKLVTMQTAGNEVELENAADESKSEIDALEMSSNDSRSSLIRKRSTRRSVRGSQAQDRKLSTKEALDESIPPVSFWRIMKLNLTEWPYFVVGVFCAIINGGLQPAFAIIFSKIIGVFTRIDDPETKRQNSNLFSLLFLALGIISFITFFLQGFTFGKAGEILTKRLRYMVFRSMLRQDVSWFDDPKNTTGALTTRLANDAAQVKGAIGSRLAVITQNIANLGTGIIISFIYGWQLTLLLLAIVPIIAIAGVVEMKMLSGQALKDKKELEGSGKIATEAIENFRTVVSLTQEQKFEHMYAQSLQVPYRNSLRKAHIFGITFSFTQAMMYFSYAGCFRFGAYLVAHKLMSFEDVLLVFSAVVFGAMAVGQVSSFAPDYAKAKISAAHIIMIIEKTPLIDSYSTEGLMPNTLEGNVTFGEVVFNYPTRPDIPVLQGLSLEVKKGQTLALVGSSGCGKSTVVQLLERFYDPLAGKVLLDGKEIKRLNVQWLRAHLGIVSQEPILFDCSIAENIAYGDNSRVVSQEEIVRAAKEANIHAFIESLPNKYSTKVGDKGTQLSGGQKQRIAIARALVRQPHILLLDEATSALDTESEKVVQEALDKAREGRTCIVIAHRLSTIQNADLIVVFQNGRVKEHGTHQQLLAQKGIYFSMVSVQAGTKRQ
Sequence of organic anion‐transporting polypeptide 1B1 (OATP1B1) (Q9Y6L6 whole entry): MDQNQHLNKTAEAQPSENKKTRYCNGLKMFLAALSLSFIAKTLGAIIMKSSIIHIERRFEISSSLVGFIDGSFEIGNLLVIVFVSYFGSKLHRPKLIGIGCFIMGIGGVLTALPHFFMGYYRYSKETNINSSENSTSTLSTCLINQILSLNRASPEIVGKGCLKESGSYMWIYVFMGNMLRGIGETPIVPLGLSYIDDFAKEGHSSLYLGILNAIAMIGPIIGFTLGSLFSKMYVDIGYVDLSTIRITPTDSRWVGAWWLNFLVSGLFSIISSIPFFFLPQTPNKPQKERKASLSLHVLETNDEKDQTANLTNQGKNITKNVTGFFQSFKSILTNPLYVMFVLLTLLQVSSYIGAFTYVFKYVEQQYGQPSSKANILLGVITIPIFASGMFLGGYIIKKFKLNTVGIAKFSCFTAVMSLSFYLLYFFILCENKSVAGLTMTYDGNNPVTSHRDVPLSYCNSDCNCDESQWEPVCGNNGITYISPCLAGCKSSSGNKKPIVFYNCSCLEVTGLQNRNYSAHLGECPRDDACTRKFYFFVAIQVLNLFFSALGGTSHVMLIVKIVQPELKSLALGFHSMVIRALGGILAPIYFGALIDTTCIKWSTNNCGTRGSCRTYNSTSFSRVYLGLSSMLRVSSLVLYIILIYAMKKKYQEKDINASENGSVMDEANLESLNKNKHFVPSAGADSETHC

Cc1cc(-c2ccc(C(=O)[C@@H]3CCCC[C@H]3C(=O)Nc3cnn4c3C(=O)NCC4)cc2)n[nH]1 [AZD5718]
time to steady-state levels ([1]; oral suspension, multiple doses): about 3 days
tolerability ([1]; single oral doses 25-1200 mg and multiple doses 60-600 mg): well tolerated, with no identified safety concerns
pIC50 [2]: 7.41
pIC50 [3]: < 4.70
pIC50 [4]: < 4.70
pIC50 [5]: 9.10
pIC50 [6]: < 4.70
pIC50 [7]: < 4.00
pIC50 [8]: < 4.70
pIC50 [9]: < 4.70
pIC50 [10]: 8.28
pIC50 [11]: 5.64
pIC50 [12]: 4.70
Deaths, serious adverse events, adverse events leading to discontinuation ([13]; all 5 treatment periods, 12 healthy men): No deaths, serious adverse events, or adverse events leading to discontinuation occurred
Participants with any AE ([13]; human, in vivo): 6 (50.0) n (%)
Participants with dry skin ([13]; human, in vivo): 1 (8.3) n (%)
Participants with headache ([13]; human, in vivo): 2 (16.7) n (%)
Participants with hot flush ([13]; human, in vivo): 1 (8.3) n (%)
Participants with influenza-like illness ([13]; human, in vivo): 1 (8.3) n (%)
Participants with musculoskeletal pain ([13]; human, in vivo): 1 (8.3) n (%)
Participants with nasal congestion ([13]; human, in vivo): 1 (8.3) n (%)
Participants with nasopharyngitis ([13]; human, in vivo): 1 (8.3) n (%)
Participants with nausea ([13]; human, in vivo): 1 (8.3) n (%)
Participants with oropharyngeal pain ([13]; human, in vivo): 1 (8.3) n (%)
Participants with poor-quality sleep ([13]; human, in vivo): 1 (8.3) n (%)
enzymes involved in metabolism [14]: cytochrome P450 (CYP) 3A4 and CYP3A5 are involved in the metabolism
pIC50 [15]: < 4.70
